The record followed here is patent publication US20040116516A1 (Boehringer Ingelheim Pharma GmbH & Co. KG, priority 2002, published 2004).

Each structure is given as a SMILES string.

For the assay, the system named is arachidonic acid induced mouse ear inflammation. Briefly: arachidonic acid induced mouse ear inflammation test (MPO as index of neutrophil accumulation). Type of assay: in vivo, mice. Particulars: for maximum inhibitory effect: group5; for effect on arachidonic acid induced ear inflammation in mice (in words): single compounds, oral administration. On the procedure:
Female albino mice (Han:NMRI) obtained from Interfauna and weighing about 20-25 g were used. The animals were provided with standardised pellet diet (Altromin 8013) and had tap water freely available. The animals were accommodated in a climatized room with a 12 hours light/dark cycle and kept in groups.
The compound of formula IA and meloxicam were administered orally (0.2 ml/10 g bw) 30 min. before arachidonic acid challenge. Meloxicam was given twice: one dose 16 hours and the second dose 30 minutes before challenge. For every day there was a concurrent control. Then number of animals per group was 7. The study compounds were suspended in 1% methylcellulose (Tylose MH 300, Fluka, CH-9470 Buchs). The experiment was run in five groups. Every group contained one control, two doses of meloxicam, two doses of (IA), and one dose of the combination of the two compounds.
Mice were lightly anesthetized by ether and 1 mg arachidonic acid (10 μl) was applied to each side of the left ear. […] The animals were sacrificed by ether 6 hours later, and a biopsy (diameter 8 mm) was punched out from both ears to assess an increase of neutrophils in the left ear compared with the right ear. Tissue samples were homogenized in 1 ml 0.5% HTAB (Hexadecyl-trimethyl-ammonium-bromide; Sigma H-5882; solved in 0.05 M phosphate buffer, pH 6.0) using a tissue homogenizer (IKA-Ultraturrax T5; Janke & Kunkel, Staufen/Breisgau) at 30000 RPM for 15 seconds. After centrifugation (16000 G, 5 min) the supernatants were frozen until processing for myeloperoxidase (MPO). Determination in the supernatants for MPO, a neutrophil marker enzyme, served as a quantitative index for the neutrophil accumulation.
MPO was determined spectrophotometrically at 450 nm using a micro plate version of the method of Bradley (1982) and a micro plate reader (Vmax; Molecular Devices, Palo Alto) suitable for kinetic measurements and expressed as mean optical density per minute.
For each individual the response myeloperoxidase activity (MPO) in optical density per minute (oD/min) was measured.
For the comparisons the nonparametric statistical methods Kruskal-Wallis-One-Way-ANOVA and the Wilcoxon-Two-Sample-Test (2 sided) have been used. For the first and last comparisons also Bonferroni-Holm adjusted p-values have been calculated.

Turning to `Cc1cnc(NC(=O)C2=C(O)c3ccccc3S(=O)(=O)N2C)s1` [Meloxicam, meloxicam], the “effect on arachidonic acid induced ear inflammation in mice (in words)” value is reported as “inhibited arachidonic acid induced ear inflammation in mice”. Further, the maximum inhibitory effect (supra-maximum doses 16 and 32 mg/kg p.o.) is on record as 37%.

Regarding `CCOC(=O)N=C(N)c1ccc(OCc2cccc(COc3ccc(C(C)(C)c4ccc(O)cc4)cc3)c2)cc1`, the “effect on arachidonic acid induced ear inflammation in mice (in words)” value is “inhibited arachidonic acid induced ear inflammation in mice”. Also, the maximum inhibitory effect (supra-maximum doses 0.8 and 1.6 mg/kg p.o.) was 66%.
